According to patent US8778951B2, “Heteroaryl compounds and their uses” (Novartis AG, priority 2009, dated 2014):

Target: Cdk9/cyclinT1 (Homo sapiens (Human), UniProt P50750)
Experiment: Cdk9/CyclinT1 IMAP Protocol (fluorescence polarization kinase assay)
Format: biochemical
Conditions: Table 2; generated using one of the two Cdk9/cyclinT1 assays (IMAP or Alpha Screen), not specified which; unit inferred
Summary of the method: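 Reaction used 4 nM Cdk9/cyclinT1, 100 nM 5TAMRA-cdk7tide peptide and 6 uM ATP in 100 mM Tris pH 7.2 with MgCl2, 0.01% Tween-20, 1 mM DTT and 2.5% DMSO, running 4.5 h. Phosphopeptide was captured by IMAP binding reagent for >1 h, then read by fluorescence polarization (ex 531/em 595 nm).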

Sequence of Cdk9/cyclinT1 (P50750 whole entry): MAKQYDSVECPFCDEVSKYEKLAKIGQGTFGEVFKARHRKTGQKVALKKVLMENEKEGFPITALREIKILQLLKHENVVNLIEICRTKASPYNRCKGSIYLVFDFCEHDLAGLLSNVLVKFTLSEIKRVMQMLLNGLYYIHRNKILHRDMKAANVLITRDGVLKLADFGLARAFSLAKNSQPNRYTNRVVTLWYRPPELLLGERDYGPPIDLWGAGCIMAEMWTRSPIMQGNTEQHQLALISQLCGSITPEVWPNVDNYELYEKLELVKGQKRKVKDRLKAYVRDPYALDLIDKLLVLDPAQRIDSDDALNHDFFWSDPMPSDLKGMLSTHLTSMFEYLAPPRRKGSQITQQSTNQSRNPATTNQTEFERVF
Sequence of Cdk9/cyclinT1 (O60563 whole entry partner): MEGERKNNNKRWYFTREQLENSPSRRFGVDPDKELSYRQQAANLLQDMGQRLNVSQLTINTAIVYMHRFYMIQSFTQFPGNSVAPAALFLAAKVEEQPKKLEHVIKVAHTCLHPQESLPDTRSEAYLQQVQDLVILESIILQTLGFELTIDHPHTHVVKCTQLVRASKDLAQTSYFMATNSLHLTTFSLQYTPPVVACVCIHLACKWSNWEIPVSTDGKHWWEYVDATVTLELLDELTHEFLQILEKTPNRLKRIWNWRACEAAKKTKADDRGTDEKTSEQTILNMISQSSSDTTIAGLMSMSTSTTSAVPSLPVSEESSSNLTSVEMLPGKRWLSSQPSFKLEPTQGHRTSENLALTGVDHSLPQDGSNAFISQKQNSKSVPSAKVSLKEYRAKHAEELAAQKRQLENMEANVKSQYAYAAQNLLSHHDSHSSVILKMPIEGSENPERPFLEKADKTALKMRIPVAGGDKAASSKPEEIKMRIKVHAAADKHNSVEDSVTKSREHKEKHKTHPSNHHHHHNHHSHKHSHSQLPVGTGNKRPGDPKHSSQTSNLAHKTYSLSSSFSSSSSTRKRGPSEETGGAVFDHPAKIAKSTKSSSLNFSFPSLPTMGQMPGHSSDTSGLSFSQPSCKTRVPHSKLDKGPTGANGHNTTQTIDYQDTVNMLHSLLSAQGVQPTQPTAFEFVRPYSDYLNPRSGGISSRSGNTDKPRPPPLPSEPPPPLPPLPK

Compound	IC50 [nM]
N[C@H]1CC[C@H](Nc2cc(-c3nc(NCC4CCOCC4)ccc3Cl)c(F)cn2)CC1 [Compound 260, N2′-(trans-4-aminocyclohexyl)-3-chloro-5′-fluoro-N6-((tetrahydro-2H-pyran-4-yl)methyl)-2,4′-bipyridine-2′,6-diamine]	7.94
N[C@H]1CC[C@H](Nc2cc(-c3cncc(NC[C@H]4CCCOC4)n3)c(Cl)cn2)CC1 [Compound 261]	7.94
N[C@H]1CC[C@H](Nc2cc(-c3cncc(NC[C@@H]4CCCOC4)n3)c(Cl)cn2)CC1 [Compound 262]	7.94
O[C@H]1CC[C@H](Nc2cc(-c3cncc(NC[C@H]4CCCOC4)n3)c(Cl)cn2)CC1 [Compound 263]	7.94
O[C@H]1CC[C@H](Nc2cc(-c3cncc(NC[C@@H]4CCCOC4)n3)c(Cl)cn2)CC1 [Compound 264]	7.94
N[C@H]1CC[C@H](Nc2cc(-c3nc(NCC4CCOCC4)c(Cl)cc3Cl)c(Cl)cn2)CC1 [Compound 266, N2′-(trans-4-aminocyclohexyl)-3,5,5′-trichloro-N6-((tetrahydro-2H-pyran-4-yl)methyl)-2,4′-bipyridine-2′,6-diamine]	7.94
N[C@H]1CC[C@H](Nc2cc(-c3ccc(F)c(NCC4CCOCC4)n3)c(Cl)cn2)CC1 [Compound 269, N2′-(trans-4-aminocyclohexyl)-5′-chloro-5-fluoro-N6-((tetrahydro-2H-pyran-4-yl)methyl)-2,4′-bipyridine-2′,6-diamine]	7.95
Clc1cnc(N[C@H]2CC[C@H](NCC3COCCO3)CC2)cc1-c1nc(NCC2CCOCC2)ccc1Cl (some centres unmarked) [Compound 271]	7.94
COCCN(C)[C@H]1CC[C@H](Nc2cc(-c3nc(NCC4CCOCC4)ccc3Cl)c(Cl)cn2)CC1 [Compound 272, 3,5′-dichloro-N2′-(trans-4-((2-methoxyethyl)(methyl)amino)cyclohexyl)-N6-((tetrahydro-2H-pyran-4-yl)methyl)-2,4′-bipyridine-2′,6-diamine]	7.94
Clc1ccc(NCC2CCOCC2)nc1-c1ccnc(N[C@H]2CC[C@H](NC[C@H]3CCCO3)CC2)c1 [Compound 273]	22.9
COCCN[C@H]1CC[C@H](Nc2cc(-c3nc(NCC4CCOCC4)ccc3Cl)ccn2)CC1 [Compound 274]	37.8
O[C@H]1CC[C@@H](Nc2cc(-c3cccc(NCC4CCOCC4)n3)c(Cl)cn2)CC1 [Compound 275]	146
COCCN[C@H]1CC[C@H](Nc2cc(-c3cccc(NCC4CCOCC4)n3)c(Cl)cn2)CC1 [Compound 276]	8.93
Clc1cnc(N[C@H]2CC[C@H](NC[C@H]3CCCO3)CC2)cc1-c1cccc(NCC2CCOCC2)n1 [Compound 277]	7.94
Clc1cnc(N[C@H]2CC[C@H](NC[C@@H]3CCCO3)CC2)cc1-c1cccc(NCC2CCOCC2)n1 [Compound 278]	7.94
COCCN(C)[C@H]1CC[C@H](Nc2cc(-c3cccc(NCC4CCOCC4)n3)c(Cl)cn2)CC1 [Compound 279]	13.1
Fc1ccc(-c2cc(N[C@H]3CC[C@H](NC4COC4)CC3)ncc2Cl)nc1NCC1CCOCC1 [Compound 281]	61.2
C[C@@H]1CC(CNc2cccc(-c3cc(N[C@H]4CC[C@H](N)CC4)ncc3Cl)n2)C[C@H](C)O1 (stereo partly drawn) [Compound 284, N2′-(trans-4-aminocyclohexyl)-5′-chloro-N6-(((2R,6S)-2,6-dimethyltetrahydro-2H-pyran-4-yl)methyl)-2,4′-bipyridine-2′,6-diamine]	1
COCCN[C@H]1CC[C@H](Nc2cc(-c3cccc(NCC4C[C@@H](C)O[C@@H](C)C4)n3)c(Cl)cn2)CC1 (stereo partly drawn) [Compound 285, 5′-chloro-N6-(((2R,6S)-2,6-dimethyltetrahydro-2H-pyran-4-yl)methyl)-N2′-(trans-4-(2-methoxyethylamino)cyclohexyl)-2,4′-bipyridine-2′,6-diamine]	2
N[C@H]1CC[C@H](Nc2cc(-c3nc(NCC4CCOCC4)ccc3Br)c(Cl)cn2)CC1 [Compound 286, N2′-(trans-4-aminocyclohexyl)-3-bromo-5′-chloro-N6-((tetrahydro-2H-pyran-4-yl)methyl)-2,4′-bipyridine-2′,6-diamine]	1
O[C@@H](CN[C@H]1CC[C@H](Nc2cc(-c3nc(NCC4CCOCC4)ccc3Cl)c(Cl)cn2)CC1)C(F)(F)F [Compound 290]	2
COCCN[C@H]1CC[C@H](Nc2cc(-c3nc(NCC4CCOCC4)ccc3Br)c(Cl)cn2)CC1 [Compound 292, 3-bromo-5′-chloro-N2′-(trans-4-(2-methoxyethylamino)cyclohexyl)-N6-((tetrahydro-2H-pyran-4-yl)methyl)-2,4′-bipyridine-2′,6-diamine]	2

Compound	IC50 [nM]
COC[C@@H](C)N[C@H]1CC[C@H](Nc2cc(-c3nc(NCC4CCOCC4)ccc3F)c(Cl)cn2)CC1 [Compound 293]	1
COC[C@@H](C)N[C@H]1CC[C@H](Nc2cc(-c3ccc(F)c(NCC4CCOCC4)n3)c(Cl)cn2)CC1 [Compound 294]	1
CC1(C)CC(CNc2ccc(Cl)c(-c3cc(N[C@H]4CC[C@H](O)CC4)ncc3Cl)n2)CCO1 (stereo partly drawn) [Compound 297, trans-4-(3,5′-dichloro-6-((2,2-dimethyltetrahydro-2H-pyran-4-yl)methyl)amino-2,4′-bipyridin-2′-yl-amino)cyclohexanol]	1
CC1(C)CC(CNc2ccc(Cl)c(-c3cc(N[C@H]4CC[C@H](NC[C@H](O)C(F)(F)F)CC4)ncc3Cl)n2)CCO1 (stereo partly drawn) [Compound 298, (2S)-3-(trans-4-(3,5′-dichloro-6-((2,2-dimethyltetrahydro-2H-pyran-4-yl)methyl)amino-2,4′-bipyridin-2′-yl-amino)cyclohexylamino)-1,1,1-trifluoropropan-2-ol]	1
CC1(C)CC(CNc2ccc(Cl)c(-c3cc(N[C@H]4CC[C@H](NC[C@@H](O)C(F)(F)F)CC4)ncc3Cl)n2)CCO1 (some centres unmarked) [Compound 299]	1
Clc1cnc(NC[C@@H]2CCCNC2)cc1-c1cccc(NCC2CCOCC2)n1 [Compound 300]	219
FC(F)(F)OCCN[C@H]1CC[C@H](Nc2cc(-c3cccc(NCC4CCOCC4)n3)c(Cl)cn2)CC1 [Compound 301, 5′-chloro-N6-((tetrahydro-2H-pyran-4-yl)methyl)-N2′-(trans-4-(2-(trifluoromethoxy)ethylamino)cyclohexyl)-2,4′-bipyridine-2′,6-diamine]	3
Clc1cnc(NC[C@H]2CCCN2)cc1-c1cccc(NCC2CCOCC2)n1 [Compound 303]	1300
Clc1cnc(NC[C@@H]2CCCN2)cc1-c1cccc(NCC2CCOCC2)n1 [Compound 304]	6190
COC[C@@H](C)N[C@H]1CC[C@H](Nc2cc(-c3cccc(NCC4(OC)CCOCC4)n3)c(Cl)cn2)CC1 [Compound 305]	1
COC[C@@H](C)N[C@H]1CC[C@H](Nc2cc(-c3cccc(NCC4(OC)CCCCC4)n3)c(Cl)cn2)CC1 [Compound 306]	9
COC[C@@H](C)N[C@H]1CC[C@H](Nc2cc(-c3cccc(NCC4COC(C)(C)CO4)n3)c(Cl)cn2)CC1 (stereo partly drawn) [Compound 307, 5′-chloro-N6-((5,5-dimethyl-1,4-dioxan-2-yl)methyl)-N2′-(trans-4-((R)-1-methoxypropan-2-yl-amino)cyclohexyl)-2,4′-bipyridine-2′,6-diamine]	8
COC[C@@H](C)N[C@H]1CC[C@H](Nc2cc(-c3ccc(C(F)(F)F)c(NCC4CCOCC4)n3)c(Cl)cn2)CC1 [Compound 308]	1
COC[C@@H](C)N[C@H]1CC[C@H](Nc2cc(-c3nc(NCC4CCOCC4)ccc3C(F)(F)F)c(Cl)cn2)CC1 [Compound 309]	35
COC[C@@H](C)N[C@H]1CC[C@H](Nc2cc(-c3cccc(NCC4(C#N)CCOCC4)n3)c(Cl)cn2)CC1 [Compound 310, 4-((5′-chloro-2′-(trans-4-((R)-1-methoxypropan-2-yl-amino)cyclohexylamino)-2,4′-bipyridin-6-ylamino)methyl)tetrahydro-2H-pyran-4-carbonitrile]	0.3
CC1(CNc2cccc(-c3cc(N[C@H]4CC[C@H](N)CC4)ncc3Cl)n2)CCOCC1 [Compound 311, N2′-(trans-4-aminocyclohexyl)-5′-chloro-N6-((4-methyltetrahydro-2H-pyran-4-yl)methyl)-2,4′-bipyridine-2′,6-diamine]	1
CC1(CNc2nc(-c3cc(N[C@H]4CC[C@H](N)CC4)ncc3Cl)ccc2F)CCOCC1 [Compound 312, N2′-(trans-4-aminocyclohexyl)-5′-chloro-5-fluoro-N6-((4-methyltetrahydro-2H-pyran-4-yl)methyl)-2,4′-bipyridine-2′,6-diamine]	0.3
N[C@H]1CC[C@H](Nc2cc(-c3cccc(NCC4(F)CCOCC4)n3)c(Cl)cn2)CC1 [Compound 313, N2′-(trans-4-aminocyclohexyl)-5′-chloro-N6-((4-fluorotetrahydro-2H-pyran-4-yl)methyl)-2,4′-bipyridine-2′,6-diamine]	1
COCCN[C@H]1CC[C@H](Nc2cc(-c3ccc(F)c(NCC4CCOCC4)n3)c(Cl)cn2)CC1 [Compound 314]	1
[2H]C([2H])(Nc1cccc(-c2cc(N[C@H]3CC[C@H](NC[C@@H]4CCCO4)CC3)ncc2Cl)n1)C1CCOCC1 [Compound 317, 5′-chloro-N6-(dideutero-(tetrahydro-2H-pyran-4-yl)methyl)-N2′-(trans-4-(((S)-tetrahydrofuran-2-yl)methyl)aminocyclohexyl)-2,4′-bipyridine-2′,6-diamine]	99
N[C@H]1CC[C@H](Nc2cc(-c3nc(NCC4CCOCC4)c(F)cc3F)c(Cl)cn2)CC1 [Compound 318]	0.26
CC(CS(C)(=O)=O)N[C@H]1CC[C@H](Nc2cc(-c3ccc(F)c(NCC4CCOCC4)n3)c(Cl)cn2)CC1 (some centres unmarked) [Compound 319]	4
